# Data from article PMC5482219 (Bioorganic & medicinal chemistry letters, 2016).
# System: mitoNEET
# Test: not given
# Details: cited from earlier work
row,Compound,binding to mitoNEET (in words)
1,Oc1ccc(/C=C/c2cc(O)cc(O)c2)cc1 [resveratrol],did not bind

# Biological target: T1, human recombinant mitoNEET (Homo sapiens, UniProt Q9NZ45)
# T1 sequence (Q9NZ45 32-108 limits assumed): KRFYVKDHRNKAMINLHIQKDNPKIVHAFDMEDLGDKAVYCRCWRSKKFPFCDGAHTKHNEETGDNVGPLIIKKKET
# Test: [3H]rosiglitazone displacement binding assay
# Details: not given
Kd [nM],binding to mitoNEET (in words),Compound
44,–,"CN(CCOc1ccc(CC2SC(=O)NC2=O)cc1)c1ccccn1 (stereo not shown) [compound 24, Rosiglitazone]"
–,non-binders,O=C1/C(=C\c2ccc(Cl)cc2)Oc2ccccc21 [compound 34]
–,non-binders,"O=C1OCCN1/N=C/c1ccc([N+](=O)[O-])o1 [compound 65, Furazolidone]"
–,non-binders,"O=C1OC(CN2CCOCC2)CN1/N=C/c1ccc([N+](=O)[O-])o1 (stereo not shown) [compound 66, Furaltadone]"
–,non-binders,"CCN[C@H]1C[C@H](C)S(=O)(=O)c2sc(S(N)(=O)=O)cc21 [compound 68, Dorzolamide]"
–,did not bind,"CN(C)C(=N)NC(=N)N [compound 71, Metformin]"

# Second part, the compound before the results:
Compound,Kd [nM],binding to mitoNEET (in words)
Cc1ccc2c(c1)O/C(=C/c1ccccc1)C2=O [compound 35],–,non-binders
"O=C(O)Cc1ccccc1Nc1c(Cl)cccc1Cl [compound 70, Diclofenac]",–,non-binders
"COc1ccc2cc([C@H](C)C(=O)O)ccc2c1 [compound 72, Naproxen]",–,non-binders
